Among the data in patent US8546443B2, “Benzylic oxindole pyrimidines” (Boehringer Ingelheim International GmbH, priority 2010, dated 2013) are IC50 and EC50 values, retold here.

A value given as a limit tells only on which side of the number the result lay.

Test [1] has as its target T1, cytoplasmic kinase domain of human IGF-1R (IGF-1R-GST) (Homo sapiens, UniProt P08069).
T1 construct: cytoplasmic kinase domain of human IGF-1R (amino acids 964-1370); GST (glutathione-S-transferase); made in house; host or cells: High Five insect cells (Invitrogen)
The experiment in a line: Insulin-like growth factor-1 receptor (IGF-1R) kinase assay (DELFIA). Format: biochemical. The following applies: IGF-1R-GST kinase activity, read-out: IGF1R IC50. In outline:
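GST-tagged IGF-1R cytoplasmic kinase domain phosphorylates pEY with biotinylated pEY for 40 min at RT; EDTA stop. Product captured on streptavidin, detected with europium anti-phosphotyrosine antibody by DELFIA time-resolved fluorescence; IC50 from inhibition curves.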

For test [2], the system named is TC-71 (Ewing's sarcoma) cells. The experiment in a line: Cell proliferation assay, TC-71 (Alamar Blue). It is filed as cell-based. As to conditions: 72 h with compound, EC50 ranges as class symbols. Here is the method:
Cell Proliferation Assays
Compounds were tested for their anti-proliferative effects in the TC-71 (Ewing's sarcoma) and HCT 116 (colorectal carcinoma) cancer cell lines in vitro. Published scientific data has described that interference with the Insulin-like Growth Factor-1 Receptor (IGF-1R) signaling pathway reduces the proliferation of TC-71 cells. Therefore TC-71 cells served as a positive control cell line for monitoring the activity of compounds against IGF-1R-mediated cell proliferation. […] Therefore the HCT 116 cell line served as a negative control.
2000 TC-71 cells or 1000 HCT 116 cells were seeded per well in 180 μL IMDM+10% foetal calf serum (FCS)+ penicillin/streptomycin into 96-well microtitre plates. The plates were placed in a cell culture incubator (37° C. in a humidified atmosphere of […]/5 CO2) overnight. The following day, serial dilutions of compounds, prepared in duplicates, were transferred onto the cell layers (controls without compound). The cells were cultivated for a further 72 h in the cell culture incubator. 20 μL of Alamar Blue™ (Serotec Ltd, Düsseldorf, Germany) was added to each well and the plates incubated for 7 h in the cell culture incubator. Fluorescence (extinction wavelength of 544 nm and emission at 590 nm) was then measured and the normalized data fitted by iterative calculation with a sigmoidal curve analysis program (Graph Pad Prism) with a variable Hill slope to determine the IC50 values.
In general terms: Resazurin is reduced to fluorescent resorufin, in cell work by metabolically active cells.

T1 sequence (P08069 964-1367 limits assumed): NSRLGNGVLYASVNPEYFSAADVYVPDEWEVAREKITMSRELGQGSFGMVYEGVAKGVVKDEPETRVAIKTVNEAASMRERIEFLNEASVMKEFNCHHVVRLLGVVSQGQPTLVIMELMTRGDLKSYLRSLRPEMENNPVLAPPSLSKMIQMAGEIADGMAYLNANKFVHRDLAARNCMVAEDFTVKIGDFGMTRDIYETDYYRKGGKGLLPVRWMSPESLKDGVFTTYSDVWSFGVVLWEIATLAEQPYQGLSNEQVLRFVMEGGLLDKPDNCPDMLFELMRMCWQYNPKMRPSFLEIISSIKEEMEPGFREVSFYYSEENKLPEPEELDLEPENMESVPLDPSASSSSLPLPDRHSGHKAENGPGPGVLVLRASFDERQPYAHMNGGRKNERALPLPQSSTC

In the case of `COCC(=O)N1CCC(c2ccc(Nc3ncc(Cl)c(NCc4cccc5c4C(C)(C)C(=O)N5)n3)c(C)c2)CC1` [Example I-292], in test [1], the IC50 – broadly, the concentration that inhibits the measured activity by half – was determined as 5 nM. The EC50 (usually the concentration needed to bring the measured effect to its halfway point) in test [2] fell in the range of 50 to 250 nM.

For the molecule `CCNC(=O)N1CCC(c2ccc(Nc3ncc(Cl)c(NCc4cccc5c4C(C)(C)C(=O)N5)n3)c(C)c2)CC1` [Example I-293], the IC50 in test [1] was determined as 10 nM. Besides, in test [2], the concentration giving a half-maximal response (EC50) lay in the range of 50 to 250 nM.

As to `Cc1cc(C2CCN(C(N)=O)CC2)ccc1Nc1ncc(Cl)c(NCc2cccc3c2C(C)(C)C(=O)N3)n1` [Example I-294], in test [1], the IC50 turned out to be 7 nM. In test [2], the EC50 lay in the range of 250 to 3000 nM.

Take `CNC1(C(=O)N2CCC(c3ccc(Nc4ncc(Cl)c(NCc5cccc6c5C(C)(C)C(=O)N6)n4)c(C)c3)CC2)CC1` [Example I-295]: the half-maximal inhibitory concentration (IC50) in test [1] came to 4 nM. Further, the EC50 in test [2] was in the range of 50 to 250 nM.

Take `COc1cc(C2CCN(C(=O)CO)CC2)ccc1Nc1ncc(Cl)c(NCc2cccc3c2C(C)(C)C(=O)N3)n1` [Example I-296]: the IC50 in test [1] was found to be 1 nM. In test [2], the EC50 was 50 to 250 nM.

As to `Cc1cc(C2CCN(C(=O)C(C)(C)O)CC2)ccc1Nc1ncc(Cl)c(NCc2cccc3c2C(C)(C)C(=O)N3)n1` [Example I-297], the concentration for half-maximal inhibition (IC50) in test [1] stood at 9 nM. Moreover, in test [2], the EC50 lay in the range of 50 to 250 nM.

`Cc1cc(C2CCN(C(=O)CO)CC2)ccc1Nc1ncc(Cl)c(NCc2cccc3c2C(C)(C)C(=O)N3)n1` [Example I-298]: the IC50 in test [1] turned out to be 7 nM. In addition, the EC50 in test [2] lay within 50 to 250 nM.

In the case of `CNC1(C(=O)N2CCC(c3ccc(Nc4ncc(Cl)c(NCc5cccc6c5C(C)(C)C(=O)N6)n4)cc3)CC2)CC1` [Example I-299], in test [1], the IC50 worked out at 8 nM. Further, the concentration giving a half-maximal response (EC50) in test [2] was under 50 nM.

Consider `COc1cc(C2CCN(C(=O)C(C)(C)O)CC2)ccc1Nc1ncc(Cl)c(NCc2cccc3c2C(C)(C)C(=O)N3)n1` [Example I-300], for which, in test [1], the IC50 was found to be 11 nM. Moreover, the concentration for a half-maximal effect (EC50) in test [2] was under 50 nM.

Turning to `COc1cc(C2CCN(CC(C)(C)O)CC2)ccc1Nc1ncc(C(F)(F)F)c(NCc2cccc3c2C(C)(C)C(=O)N3)n1` [Example I-302], the IC50 in test [1] came to 0.6 nM. Besides, the EC50 in test [2] was under 50 nM.

Consider `Cc1cc(Nc2ncc(C(F)(F)F)c(NCc3cccc4c3C(C)(C)C(=O)N4)n2)ccc1C1CCN(CC(C)(C)O)CC1` [Example I-303], for which the IC50 in test [1] is 0.2 nM. The EC50 in test [2] was under 50 nM.

Consider `COc1cc(N2CCN(CC(C)(C)O)CC2)ccc1Nc1ncc(C(F)(F)F)c(NCc2cccc3c2C(C)(C)C(=O)N3)n1` [Example I-304], for which, in test [1], the IC50 came out at 1 nM. In test [2], the EC50 was under 50 nM.

Turning to `Cc1cc(N2CCN(CC(C)(C)O)CC2)ccc1Nc1ncc(C(F)(F)F)c(NCc2cccc3c2C(C)(C)C(=O)N3)n1` [Example I-305], the IC50 in test [1] was found to be 2 nM. Also, the EC50 in test [2] lay in the range of 50 to 250 nM.

For the molecule `Cc1cc(N2CCN(C)CC2)ccc1Nc1ncc(C(F)(F)F)c(NCc2cccc3c2C(C)(C)C(=O)N3)n1` [Example I-307], in test [1], the IC50 stood at 1 nM. Further, the EC50 in test [2] is under 50 nM.

As to `Cc1cc(C2CCN(C)CC2)ccc1Nc1ncc(C(F)(F)F)c(NCc2cccc3c2C(C)(C)C(=O)N3)n1` [Example I-308], in test [1], the IC50 was determined as 0.8 nM. Also, the EC50 in test [2] is under 50 nM.

Take `Cc1cc(C2CCN(CC(C)(C)O)CC2)ccc1Nc1ncc(C(F)(F)F)c(NCc2cccc3c2C(C)(C)C(=O)N3)n1` [Example I-309]: the IC50 in test [1] stood at 1 nM. Moreover, the concentration for a half-maximal effect (EC50) in test [2] was under 50 nM.

With `CC(C)(O)CN1CCC(c2ccc(Nc3ncc(C(F)(F)F)c(NCc4cccc5c4C(C)(C)C(=O)N5)n3)c(OC(F)F)c2)CC1` [Example I-310], the IC50 in test [1] stood at 5 nM. In addition, in test [2], the EC50 was in the range of 50 to 250 nM.

Take `Cc1cc(Nc2ncc(C(F)(F)F)c(NCc3cccc4c3C(C)(C)C(=O)N4)n2)c(F)cc1C1CCN(CC(C)(C)O)CC1` [Example I-311]: in test [1], the IC50 was determined as 15 nM. In addition, the EC50 in test [2] lay in the range of 50 to 250 nM.

As for `Cc1cc(C2CCN(CC(C)(C)O)CC2)c(C)cc1Nc1ncc(C(F)(F)F)c(NCc2cccc3c2C(C)(C)C(=O)N3)n1` [Example I-312], in test [1], the IC50 stood at 27 nM. Also, in test [2], the concentration for a half-maximal effect (EC50) fell in the range of 50 to 250 nM.

Turning to `Cc1c(Nc2ncc(C(F)(F)F)c(NCc3cccc4c3C(C)(C)C(=O)N4)n2)ccc(C2CCN(CC(C)(C)O)CC2)c1C` [Example I-313], in test [1], the concentration for half-maximal inhibition (IC50) was 0.5 nM. Also, the EC50 in test [2] was under 50 nM.

For the molecule `CCc1cc(C2CCN(CC(C)(C)O)CC2)ccc1Nc1ncc(C(F)(F)F)c(NCc2cccc3c2C(C)(C)C(=O)N3)n1` [Example I-314], the IC50 in test [1] worked out at 5 nM. Moreover, the EC50 in test [2] lay within 50 to 250 nM.

Consider `Cc1cc(N2CCN(CC(C)(C)O)CC2)ccc1Nc1ncc(Br)c(NCc2cccc3c2C(C)(C)C(=O)N3)n1` [Example I-317], for which the half-maximal inhibitory concentration (IC50) in test [1] came to 6 nM. Further, the EC50 in test [2] is under 50 nM.

In the case of `Cc1cc([C@H]2CCCN(CC(C)(C)O)C2)ccc1Nc1ncc(Br)c(NCc2cccc3c2C(C)(C)C(=O)N3)n1` [Example I-319], the IC50 in test [1] came out at 2 nM. In addition, the EC50 in test [2] was under 50 nM.

As for `Cc1cc([C@@H]2CCCN(CC(C)(C)O)C2)ccc1Nc1ncc(Br)c(NCc2cccc3c2C(C)(C)C(=O)N3)n1` [Example I-320], the IC50 in test [1] was determined as 0.9 nM. Moreover, the EC50 in test [2] is under 50 nM.

Take `COc1cc(N2CCN(CC(C)(C)O)CC2)ccc1Nc1ncc(Br)c(NCc2cccc3c2C(C)(C)C(=O)N3)n1` [Example I-321]: the IC50 in test [1] was 2 nM. The EC50 in test [2] is under 50 nM.

As to `COc1cc(C2CCN(CC(C)(C)O)CC2)ccc1Nc1ncc(Br)c(NCc2cccc3c2C(C)(C)C(=O)N3)n1` [Example I-323], in test [1], the IC50 turned out to be 0.9 nM. For the same molecule, in test [2], the EC50 was under 50 nM.

With `Cc1cc(Nc2ncc(Br)c(NCc3cccc4c3C(C)(C)C(=O)N4)n2)ccc1C1CCN(CC(C)(C)O)CC1` [Example I-324], the IC50 in test [1] is 0.1 nM. The concentration giving a half-maximal response (EC50) in test [2] was under 50 nM.

In the case of `Cc1cc(C2CCN(CC(O)C(F)(F)F)CC2)ccc1Nc1ncc(Cl)c(NCc2cccc3c2C(C)(C)C(=O)N3)n1` (stereo not shown) [Example I-326], the half-inhibitory concentration (IC50) in test [1] is 2 nM. Moreover, the concentration giving a half-maximal response (EC50) in test [2] lay within 50 to 250 nM.

On to `Cc1cc(N2CCN(C)CC2)ccc1Nc1ncc(Cl)c(NCc2cccc3c2C(C)(C)C(=O)N3)n1` [Example I-330], for which the IC50 in test [1] came to 3 nM. In addition, in test [2], the EC50 was under 50 nM.

For the molecule `COc1cc(C2CCN(CC(C)(C)O)CC2)ccc1Nc1ncc(Cl)c(NCc2cccc3c2C(C)(C)C(=O)N3)n1` [Example I-331], the IC50 in test [1] was 1 nM. The 50% effective concentration (EC50) in test [2] was under 50 nM.

In the case of `Cc1cc(C2CCN(C)CC2)ccc1Nc1ncc(Cl)c(NCc2cccc3c2C(C)(C)C(=O)N3)n1` [Example I-332], the IC50 in test [1] turned out to be 1 nM. In addition, the EC50 in test [2] was under 50 nM.

In the case of `Cc1cc(Nc2ncc(Cl)c(NCc3cccc4c3C(C)(C)C(=O)N4)n2)ccc1C1CCN(CC(C)(C)O)CC1` [Example I-334], the IC50 in test [1] turned out to be 0.4 nM. Moreover, the EC50 in test [2] is under 50 nM.

In the case of `COc1cc(N2CCN(CC(C)(C)O)CC2)ccc1Nc1ncc(Cl)c(NCc2cccc3c2C(C)(C)C(=O)N3)n1` [Example I-335], the IC50 in test [1] came out at 3 nM. Besides, the EC50 in test [2] was under 50 nM.

In the case of `Cc1cc(N2CCN(CC(C)(C)O)CC2)ccc1Nc1ncc(Cl)c(NCc2cccc3c2C(C)(C)C(=O)N3)n1` [Example I-336], the IC50 in test [1] was 4 nM. In test [2], the EC50 was 50 to 250 nM.

On to `Cc1cc(Nc2ncc(Cl)c(NCc3cccc4c3C(C)(C)C(=O)N4)n2)c(F)cc1C1CCN(CC(C)(C)O)CC1` [Example I-337], for which the IC50 in test [1] came out at 9 nM. Besides, the EC50 in test [2] fell in the range of 250 to 3000 nM.
